Test results reported in the kinase profiling compilation of Christmann-Franck et al. (2016).

Legend:
Assay in all cases: radiometric filter-binding kinase assay, Kinase HotSpot
Settings in all cases: compound 0.5 µM; ATP 10 µM
[1] = molecular target: PDGFRB (human) (UniProt P09619)
[2] = molecular target: CDK5 CDK5R1 p35 (human) (UniProt Q00535+Q15078)
[3] = molecular target: MAP3K10 (human) (UniProt Q02779)
[4] = molecular target: PLK2 (human) (UniProt Q9NYY3)
[5] = molecular target: CHUK (human) (UniProt O15111)
Chain of CHUK (human) (O15111 whole entry, looked up): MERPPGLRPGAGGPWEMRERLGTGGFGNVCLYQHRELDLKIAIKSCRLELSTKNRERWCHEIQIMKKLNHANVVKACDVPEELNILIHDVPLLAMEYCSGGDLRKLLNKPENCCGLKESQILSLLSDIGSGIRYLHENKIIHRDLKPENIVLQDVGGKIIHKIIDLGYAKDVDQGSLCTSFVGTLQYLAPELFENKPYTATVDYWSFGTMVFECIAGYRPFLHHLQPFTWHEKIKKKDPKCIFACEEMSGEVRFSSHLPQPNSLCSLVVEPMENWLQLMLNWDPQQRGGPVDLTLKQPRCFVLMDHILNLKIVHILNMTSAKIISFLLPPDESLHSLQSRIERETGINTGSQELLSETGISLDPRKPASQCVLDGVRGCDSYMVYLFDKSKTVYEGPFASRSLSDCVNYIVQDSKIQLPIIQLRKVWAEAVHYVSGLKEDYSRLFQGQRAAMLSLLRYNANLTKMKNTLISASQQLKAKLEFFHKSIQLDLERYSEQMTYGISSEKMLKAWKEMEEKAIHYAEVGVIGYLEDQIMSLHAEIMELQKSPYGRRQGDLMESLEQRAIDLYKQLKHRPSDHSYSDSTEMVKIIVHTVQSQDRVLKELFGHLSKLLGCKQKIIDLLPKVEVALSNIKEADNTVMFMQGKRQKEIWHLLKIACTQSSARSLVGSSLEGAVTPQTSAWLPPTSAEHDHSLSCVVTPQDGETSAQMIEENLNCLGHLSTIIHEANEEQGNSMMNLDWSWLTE

[6] = molecular target: ULK3 (human) (UniProt Q6PHR2)
[7] = molecular target: EPHB4 (human) (UniProt P54760)
[8] = molecular target: BRAF (human) (UniProt P15056)
Chain of BRAF (human) (P15056 whole entry, looked up): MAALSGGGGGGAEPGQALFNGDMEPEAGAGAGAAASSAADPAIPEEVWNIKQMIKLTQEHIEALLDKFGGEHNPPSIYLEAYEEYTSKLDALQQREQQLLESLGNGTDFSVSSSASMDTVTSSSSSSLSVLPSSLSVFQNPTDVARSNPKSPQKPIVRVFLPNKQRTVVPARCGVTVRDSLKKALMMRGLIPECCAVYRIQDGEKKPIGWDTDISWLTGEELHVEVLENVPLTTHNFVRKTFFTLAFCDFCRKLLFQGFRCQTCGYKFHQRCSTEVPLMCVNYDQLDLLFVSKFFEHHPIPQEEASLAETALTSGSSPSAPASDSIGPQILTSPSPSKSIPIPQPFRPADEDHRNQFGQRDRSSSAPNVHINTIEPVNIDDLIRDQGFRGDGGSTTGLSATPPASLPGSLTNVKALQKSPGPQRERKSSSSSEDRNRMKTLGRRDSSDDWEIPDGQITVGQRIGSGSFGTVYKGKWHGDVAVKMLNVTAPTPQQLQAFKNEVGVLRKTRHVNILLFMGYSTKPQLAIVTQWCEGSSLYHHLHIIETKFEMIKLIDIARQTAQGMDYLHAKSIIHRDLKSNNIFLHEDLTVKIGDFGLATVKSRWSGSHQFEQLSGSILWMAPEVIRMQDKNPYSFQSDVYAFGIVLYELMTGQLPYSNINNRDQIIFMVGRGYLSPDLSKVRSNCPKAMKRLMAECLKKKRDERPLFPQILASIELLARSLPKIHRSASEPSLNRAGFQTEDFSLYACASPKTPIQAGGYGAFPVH

[9] = molecular target: PRKACG (human) (UniProt P22612)
[10] = molecular target: STK38 (human) (UniProt Q15208)
Chain of STK38 (human) (Q15208 whole entry, looked up): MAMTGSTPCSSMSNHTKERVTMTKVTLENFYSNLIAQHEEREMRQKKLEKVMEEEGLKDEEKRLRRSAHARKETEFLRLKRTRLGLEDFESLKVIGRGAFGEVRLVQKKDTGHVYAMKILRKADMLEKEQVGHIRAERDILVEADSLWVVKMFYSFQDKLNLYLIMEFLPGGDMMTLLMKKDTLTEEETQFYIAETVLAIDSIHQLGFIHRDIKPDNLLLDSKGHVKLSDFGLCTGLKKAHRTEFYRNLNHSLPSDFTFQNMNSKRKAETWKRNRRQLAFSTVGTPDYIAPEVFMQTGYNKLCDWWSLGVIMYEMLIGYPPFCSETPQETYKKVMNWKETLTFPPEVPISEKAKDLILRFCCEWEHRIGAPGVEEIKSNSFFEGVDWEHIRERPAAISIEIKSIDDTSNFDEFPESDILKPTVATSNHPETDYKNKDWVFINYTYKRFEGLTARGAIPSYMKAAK

[11] = molecular target: MAPK1 (human) (UniProt P28482)
[12] = molecular target: EPHA6 (human) (UniProt Q9UF33)
[13] = molecular target: MYO3B (human) (UniProt Q8WXR4)
[14] = molecular target: CSNK1E (human) (UniProt P49674)
[15] = molecular target: DCLK2 (human) (UniProt Q8N568)
[16] = molecular target: GRK6 (human) (UniProt P43250)
Chain of GRK6 (human) (P43250 whole entry, looked up): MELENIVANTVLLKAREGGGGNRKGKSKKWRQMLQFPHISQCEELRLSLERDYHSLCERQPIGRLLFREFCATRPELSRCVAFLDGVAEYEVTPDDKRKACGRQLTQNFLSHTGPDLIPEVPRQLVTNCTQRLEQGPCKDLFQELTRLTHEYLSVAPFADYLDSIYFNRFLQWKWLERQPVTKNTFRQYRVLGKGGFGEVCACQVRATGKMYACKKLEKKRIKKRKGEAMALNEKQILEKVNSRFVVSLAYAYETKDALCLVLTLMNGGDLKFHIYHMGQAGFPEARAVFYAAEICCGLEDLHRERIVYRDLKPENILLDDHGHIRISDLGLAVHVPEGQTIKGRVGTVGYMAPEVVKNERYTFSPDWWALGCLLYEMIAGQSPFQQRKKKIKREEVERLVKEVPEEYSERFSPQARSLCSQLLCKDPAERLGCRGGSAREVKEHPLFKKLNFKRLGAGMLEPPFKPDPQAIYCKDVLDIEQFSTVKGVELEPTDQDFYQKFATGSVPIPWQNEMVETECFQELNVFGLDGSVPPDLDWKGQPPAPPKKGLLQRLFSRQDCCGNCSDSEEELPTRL

[17] = molecular target: FES (human) (UniProt P07332)
Chain of FES (human) (P07332 whole entry, looked up): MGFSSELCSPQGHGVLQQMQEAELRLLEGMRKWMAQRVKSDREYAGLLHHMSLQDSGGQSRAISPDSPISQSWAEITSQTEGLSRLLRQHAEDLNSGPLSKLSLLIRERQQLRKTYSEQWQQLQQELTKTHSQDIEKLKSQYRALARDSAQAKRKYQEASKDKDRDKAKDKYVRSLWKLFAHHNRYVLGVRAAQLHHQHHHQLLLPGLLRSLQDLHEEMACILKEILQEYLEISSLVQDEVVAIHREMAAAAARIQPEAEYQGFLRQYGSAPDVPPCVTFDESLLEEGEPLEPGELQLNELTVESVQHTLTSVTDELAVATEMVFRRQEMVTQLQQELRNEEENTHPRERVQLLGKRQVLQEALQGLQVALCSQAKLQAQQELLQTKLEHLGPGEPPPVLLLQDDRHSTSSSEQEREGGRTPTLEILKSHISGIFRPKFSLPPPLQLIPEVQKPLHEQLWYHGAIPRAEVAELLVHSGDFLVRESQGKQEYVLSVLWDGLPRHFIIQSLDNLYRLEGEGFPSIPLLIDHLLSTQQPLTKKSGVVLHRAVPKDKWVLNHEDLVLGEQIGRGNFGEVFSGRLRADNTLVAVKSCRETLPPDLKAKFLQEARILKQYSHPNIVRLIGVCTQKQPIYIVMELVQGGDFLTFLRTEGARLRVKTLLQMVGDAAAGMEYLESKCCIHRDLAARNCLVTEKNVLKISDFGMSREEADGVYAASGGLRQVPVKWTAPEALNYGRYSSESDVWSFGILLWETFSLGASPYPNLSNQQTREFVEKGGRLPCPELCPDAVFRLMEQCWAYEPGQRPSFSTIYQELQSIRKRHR

[18] = molecular target: MYLK (human) (UniProt Q15746)
[19] = molecular target: CDC42BPB (human) (UniProt Q9Y5S2)
[20] = molecular target: STK4 (human) (UniProt Q13043)
[21] = molecular target: PBK (human) (UniProt Q96KB5)
[22] = molecular target: ACVR1 (human) (UniProt Q04771)
[23] = molecular target: AURKA (human) (UniProt O14965)
Chain of AURKA (human) (O14965 whole entry, looked up): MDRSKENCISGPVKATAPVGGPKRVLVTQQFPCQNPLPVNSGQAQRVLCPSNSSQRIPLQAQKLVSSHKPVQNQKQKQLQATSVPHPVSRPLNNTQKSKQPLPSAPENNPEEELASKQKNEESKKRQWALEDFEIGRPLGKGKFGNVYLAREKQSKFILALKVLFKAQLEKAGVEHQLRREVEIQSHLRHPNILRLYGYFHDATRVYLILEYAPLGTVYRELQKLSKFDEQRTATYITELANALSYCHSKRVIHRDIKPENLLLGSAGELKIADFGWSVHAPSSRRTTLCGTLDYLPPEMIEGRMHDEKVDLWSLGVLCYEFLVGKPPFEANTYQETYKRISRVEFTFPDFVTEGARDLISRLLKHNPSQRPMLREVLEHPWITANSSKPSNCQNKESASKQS

[24] = molecular target: PLK1 (human) (UniProt P53350)
[25] = molecular target: NUAK2 (human) (UniProt Q9H093)
[26] = molecular target: TLK2 (human) (UniProt Q86UE8)
[27] = molecular target: ERBB2 (human) (UniProt P04626)
[28] = molecular target: PRKCE (human) (UniProt Q02156)
[29] = molecular target: NEK7 (human) (UniProt Q8TDX7)
[30] = molecular target: PRKD2 (human) (UniProt Q9BZL6)
[31] = molecular target: RAF1 (human) (UniProt P04049)
[32] = molecular target: EGFR (human) (UniProt P00533)
[33] = molecular target: ABL1 (human) (UniProt P00519)
Chain of ABL1 (human) (P00519 whole entry, looked up): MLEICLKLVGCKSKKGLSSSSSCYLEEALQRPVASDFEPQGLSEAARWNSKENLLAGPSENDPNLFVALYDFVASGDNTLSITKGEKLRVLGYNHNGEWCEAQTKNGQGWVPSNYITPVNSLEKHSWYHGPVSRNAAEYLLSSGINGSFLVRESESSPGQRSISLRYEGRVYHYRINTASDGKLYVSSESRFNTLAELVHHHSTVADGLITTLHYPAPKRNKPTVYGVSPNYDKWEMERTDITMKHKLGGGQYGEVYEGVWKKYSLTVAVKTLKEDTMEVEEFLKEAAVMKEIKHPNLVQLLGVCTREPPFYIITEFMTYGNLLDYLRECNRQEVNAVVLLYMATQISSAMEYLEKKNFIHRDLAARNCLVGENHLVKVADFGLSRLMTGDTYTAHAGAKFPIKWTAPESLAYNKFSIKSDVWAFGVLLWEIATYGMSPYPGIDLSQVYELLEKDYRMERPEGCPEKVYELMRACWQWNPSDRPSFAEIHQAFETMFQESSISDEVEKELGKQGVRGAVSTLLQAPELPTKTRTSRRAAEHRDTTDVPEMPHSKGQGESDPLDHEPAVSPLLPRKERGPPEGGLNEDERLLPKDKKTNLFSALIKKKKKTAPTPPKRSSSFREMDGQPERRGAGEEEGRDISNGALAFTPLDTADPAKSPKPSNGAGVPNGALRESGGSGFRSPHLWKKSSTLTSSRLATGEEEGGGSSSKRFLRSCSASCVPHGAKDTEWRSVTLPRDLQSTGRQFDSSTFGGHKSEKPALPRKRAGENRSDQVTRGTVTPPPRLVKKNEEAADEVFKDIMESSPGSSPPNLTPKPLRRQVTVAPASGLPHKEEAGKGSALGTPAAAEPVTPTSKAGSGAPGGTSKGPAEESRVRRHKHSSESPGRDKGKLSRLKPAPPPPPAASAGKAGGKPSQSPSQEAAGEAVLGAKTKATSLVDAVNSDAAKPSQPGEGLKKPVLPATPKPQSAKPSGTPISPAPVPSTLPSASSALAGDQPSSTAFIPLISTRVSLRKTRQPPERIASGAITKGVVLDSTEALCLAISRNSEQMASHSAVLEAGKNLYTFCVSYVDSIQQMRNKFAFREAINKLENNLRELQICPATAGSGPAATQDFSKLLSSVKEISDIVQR

[34] = molecular target: WEE1 (human) (UniProt P30291)
[35] = molecular target: PAK1 (human) (UniProt Q13153)
[36] = molecular target: MAPK12 (human) (UniProt P53778)
[37] = molecular target: FGFR1 (human) (UniProt P11362)
[38] = molecular target: MARK2 (human) (UniProt Q7KZI7)
[39] = molecular target: CSNK2A2 (human) (UniProt P19784)
[40] = molecular target: CLK2 (human) (UniProt P49760)
[41] = test system: ARAF (human), P10398 [Y301D/Y302D]

Compound	residual activity [1]	residual activity [2]	residual activity [3]	residual activity [4]	residual activity [5]	residual activity [6]	residual activity [7]	residual activity [8]	residual activity [9]	residual activity [10]	residual activity [11]	residual activity [12]	residual activity [13]	residual activity [14]	residual activity [15]	residual activity [16]	residual activity [17]	residual activity [18]	residual activity [19]	residual activity [20]	other results
COc1ccc(-c2cnc3c(-c4ccsc4)cnn3c2)cc1	63.4%	64.5%	94.2%	100%	94.5%	79.4%	87.5%	85.9%	93.9%	102%	99.2%	85.1%	84%	86.3%	97.5%	99.9%	98.2%	102%	83.4%	97.3%	residual activity [21]: 91.6%; residual activity [22]: 91.1%; residual activity [23]: 68%; residual activity [24]: 101%; residual activity [25]: 138%; residual activity [26]: 96.2%; residual activity [27]: 102%; residual activity [28]: 103%; residual activity [29]: 109%; residual activity [30]: 97.7%; residual activity [31]: 95.5%; residual activity [32]: 92.3%; residual activity [33]: 72.9%; residual activity [34]: 102%; residual activity [35]: 97%; residual activity [36]: 94.8%; residual activity [37]: 80.3%; residual activity [38]: 82.1%; residual activity [39]: 87.3%; residual activity [40]: 83.8%
CSc1nc(-c2ccc(F)cc2)c(-c2ccnc(NC(C)c3ccccc3)c2)[nH]1 (stereo not given)	97.6%	101%	90.6%	94.3%	98.4%	85.3%	99.9%	91.8%	115%	104%	102%	75.8%	100%	72%	92.7%	79.8%	93.8%	100%	98.8%	89.8%	residual activity [21]: 109%; residual activity [22]: 89.3%; residual activity [23]: 99.9%; residual activity [24]: 99.1%; residual activity [25]: 86.5%; residual activity [26]: 106%; residual activity [27]: 99.2%; residual activity [28]: 87.6%; residual activity [29]: 89.6%; residual activity [30]: 86.4%; residual activity [31]: 88.9%; residual activity [32]: 87.1%; residual activity [33]: 103%; residual activity [34]: 76.1%; residual activity [35]: 97.7%; residual activity [41]: 99%; residual activity [37]: 97.6%; residual activity [38]: 90.7%; residual activity [39]: 88.8%; residual activity [40]: 102%
O=C(Nc1ccc(Cl)cc1)c1ccccc1NCc1ccncc1	45%	90.4%	104%	99.3%	104%	84.7%	89.6%	90%	87.4%	97.5%	94.7%	89.8%	82%	92.5%	95.2%	101%	96.6%	105%	79.9%	98.7%	residual activity [21]: 88.5%; residual activity [22]: 97.2%; residual activity [23]: 84.4%; residual activity [24]: 103%; residual activity [25]: 137%; residual activity [26]: 97.3%; residual activity [27]: 98.7%; residual activity [28]: 97%; residual activity [29]: 103%; residual activity [30]: 98%; residual activity [31]: 62.6%; residual activity [33]: 99.7%; residual activity [34]: 90.1%; residual activity [35]: 94.9%; residual activity [36]: 97.3%; residual activity [41]: 91.4%; residual activity [37]: 83.7%; residual activity [38]: 92.7%; residual activity [39]: 98.3%; residual activity [40]: 91.8%
